Reference: US10278942B2 (PELOTON THERAPEUTICS, INC., priority 2015, dated 2019)

Biological target: T1, HIF-2α HIS TAG-PASB Domain (Homo sapiens, UniProt Q99814)
T1 construct: 100 nM HIF-2α HIS TAG-PASB Domain
Test: HIF-2α Scintillation Proximity Assay (SPA)
Type: binding
Details: Scintillation Proximity Assay IC50 (nM)
Outline: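 IC50 values rest on percent inhibition, where the sample signal is scaled between high and low controls. Wells contain about 100 μL: compound dispensed as 2 μL of DMSO solution, 88 μL protein-probe mix and 10 μL of beads.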

T1 sequence (Q99814 240-350 limits assumed): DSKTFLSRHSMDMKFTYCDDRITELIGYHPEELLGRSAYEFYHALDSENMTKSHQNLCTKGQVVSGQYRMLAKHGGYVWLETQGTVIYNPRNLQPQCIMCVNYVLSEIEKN

Structure (SMILES)	IC50 [nM]
CS(=O)(=O)c1ccc(Oc2cc(F)cc(Cl)c2)c(Br)c1 [Compound 138]	> 1000
O=S(=O)(c1ccc(Oc2cc(F)cc(Cl)c2)c(CO)c1)C(F)(F)F [Compound 122]	> 1000
Cc1c(Oc2cc(F)cc(Cl)c2)ccc2c1C(O)C(F)(F)S2(=O)=O (stereo not drawn) [Compound 359]	< 50
COC(=O)c1cc(S(=O)(=O)C(F)(F)F)ccc1Oc1cc(F)cc(Cl)c1 [Compound 121]	> 1000

Same assay, conditions: read-out: Scintillation Proximity Assay IC50

Structure (SMILES)	IC50 [nM]
CS(=O)(=O)c1ccc(Nc2cncc(Cl)c2)c2c1C(O)C(F)(F)C2 (stereo not drawn) [Compound 500]	> 1000
OC1c2c(-c3cn[nH]c3)ccc(OCC(F)F)c2CC1(F)F (stereo not drawn) [Compound 684]	> 1000
CNC(=O)C(C)Oc1ccc(S(=O)(=O)C(F)(F)F)c2c1CC(F)(F)C2O (stereo not drawn) [Compound 645]	> 1000
CC1(C)C(O)c2c(ccc(Oc3cc(F)cc(Cl)c3)c2C#N)S1(=O)=O (stereo not drawn) [Compound 408]	> 1000
CN(Cc1cccs1)c1ccc(S(=O)(=O)C(F)F)c2c1CC(F)(F)[C@H]2O [Compound 530]	> 1000
N#Cc1c(Oc2cc(F)cc(Cl)c2)ccc(S(=O)(=O)C(F)(F)F)c1C(=O)O [Compound 105]	> 1000
O=S(=O)(c1ccc(-c2ccccc2O)c2c1[C@H](O)C(F)(F)C2)C(F)(F)F [Compound 564]	> 1000
O=S(=O)(c1ccc(Oc2cc(F)cc(CO)c2)c(Br)c1)C(F)(F)F [Compound 177]	> 1000
CS(=O)(=O)c1ccc(Oc2cc(F)cc(C#N)c2)c2c1[C@H](O)CC2(F)F [Compound 288]	> 1000
CC1(O)c2c(ccc(OC3CC(F)(F)C3)c2C#N)S(=O)(=O)C1(F)F (stereo not drawn) [Compound 461]	> 1000
O=S(=O)(c1ccc(Oc2cc(F)cc(Cl)c2)c(CCO)c1)C(F)(F)F [Compound 127]	> 1000
CC1(Oc2ccc(S(=O)(=O)C(F)(F)F)c3c2CC(F)(F)[C@H]3O)COC1 [Compound 785]	> 1000
O=S(=O)(c1ccc(OC2CCNCC2)c2c1C(O)CC2)C(F)(F)F (stereo not drawn) [Compound 606]	> 1000
N#CN=S(=O)(CF)c1ccc(Oc2cc(F)cc(C#N)c2)c2c1[C@H](O)CC2 (stereo partly drawn) [Compound 282]	> 1000
CC1(C)C=C(c2ccc(S(=O)(=O)C(F)(F)F)c3c2CC(F)(F)[C@H]3O)C(O)CC1 (stereo partly drawn) [Compound 543]	> 1000
CC(Oc1ccc(S(=O)(=O)C(F)(F)F)c2c1CC(F)(F)C2O)C(=O)O (stereo not drawn) [Compound 646]	> 1000
O=S(=O)(c1ccc(OCCO)c2c1C(O)CC2)C(F)(F)F (stereo not drawn) [Compound 613]	> 1000
O=S(=O)(c1ccc(O[C@H]2CCCc3cn[nH]c32)c2c1[C@H](O)C(F)(F)C2)C(F)(F)F [Compound 732]	> 1000
CS(=O)(=O)c1ccc(O[C@H]2C[C@@H](C(N)=O)C2)c2c1[C@H](O)C(F)(F)[C@@H]2F [Compound 763]	> 1000

Structure (SMILES)	IC50 [nM]
N#Cc1c(Oc2cc(F)cc(Cl)c2)ccc2c1CCS2(=O)=O [Compound 351]	> 1000
O=S(=O)(c1ccc(Oc2cc(F)cc(Cl)c2)c(Cl)c1Cn1ccnc1)C(F)F [Compound 45]	> 1000
COc1ccc(-c2cn[nH]c2)c2c1CC(F)(F)C2O (stereo not drawn) [Compound 680]	> 1000
COC(C)COc1ccc(S(=O)(=O)C(F)(F)F)c2c1CCC2O (stereo not drawn) [Compound 625]	> 1000
COc1ccc(I)c2c1CC(F)(F)C2O (stereo not drawn) [Compound 679]	> 1000
CC(=O)N1CCCC(Oc2ccc(S(=O)(=O)C(F)(F)F)c3c2CC(F)(F)C3O)C1 (stereo not drawn) [Compound 627]	> 1000
CN1CCC(Oc2ccc(S(=O)(=O)C(F)(F)F)c3c2CC(F)(F)C3O)C1 (stereo not drawn) [Compound 642]	> 1000
CS(=O)(=O)c1ccc(Oc2cc(F)cc(Cl)c2)c(C#N)c1 [Compound 139]	> 1000
NC1CCc2c(Oc3cc(F)cc(F)c3)ccc(S(=O)(=O)C(F)F)c21 (stereo not drawn) [Compound 19]	> 1000
CC(C)(C)OC(=O)N1CC(Oc2ccc(S(=O)(=O)C(F)(F)F)c3c2CC(F)(F)[C@H]3O)C1 [Compound 791]	> 1000
O=S(=O)(c1cc(C(F)(F)F)ccc1Oc1cc(F)cc(Cl)c1)C(F)(F)F [Compound 129]	> 1000
N#Cc1cc(F)cc(Oc2ccc3c(c2C(F)F)C(O)(C(F)(F)F)C(F)(F)S3(=O)=O)c1 (stereo not drawn) [Compound 445]	> 1000
CS(=O)(=O)c1cc(F)c(Oc2cc(F)cc(C#N)c2)c2c1C(O)C(F)(F)C2 (stereo not drawn) [Compound 219]	> 1000
CC1(C)C=C(c2ccc(S(=O)(=O)C(F)(F)F)c3c2CC(F)(F)[C@H]3O)C(=O)CC1 [Compound 541]	> 1000
O=S1(=O)CC(O)c2c1ccc(Oc1cc(F)cc(F)c1)c2Br (stereo not drawn) [Compound 418]	> 1000
CS(=O)(=O)c1ccc(Nc2cncc(Cl)c2)c2c1C(O)CC2 (stereo not drawn) [Compound 499]	> 1000
O=S1(=O)C[C@H](O)c2c1ccc(Oc1cc(F)cc(F)c1)c2Br [Compound 413]	> 1000
O=S(=O)(c1ccc(Oc2cccn3ccnc23)c2c1C(O)C(F)(F)C2)C(F)(F)F (stereo not drawn) [Compound 246]	> 1000

Now from value to molecule:

IC50 [nM]	Structure (SMILES)
250 to 1000	O=C1c2c(S(=O)(=O)C(F)F)ccc(Oc3ccc(F)c(Br)c3)c2CC1(F)F [Compound 193]
> 1000	CNC(=O)COc1ccc(S(=O)(=O)C(F)(F)F)c2c1CC(F)(F)C2O (stereo not drawn) [Compound 638]
> 1000	O=S(=O)(c1ccc(Oc2ccc(F)cc2F)c(Br)c1)C(F)(F)F [Compound 175]
> 1000	O=S1(=O)CCc2c1ccc(Oc1cc(F)cc(Cl)c1)c2Br [Compound 350]
> 1000	CN(C)Cc1c(S(=O)(=O)C(F)F)ccc(Oc2cc(F)cc(Cl)c2)c1C#N [Compound 36]
> 1000	N#Cc1cc(F)cc(Oc2ccc3c(c2C#CCF)C(O)C(F)(F)S3(=O)=O)c1 (stereo not drawn) [Compound 410]
> 1000	CS(=O)(=O)c1ccc(Nc2ccc(F)cc2)c2c1C(O)C(F)(F)C2 (stereo not drawn) [Compound 501]
> 1000	CC(C)(C)OC(=O)N[C@H]1C[C@@H](O)c2c(S(=O)(=O)C(F)(F)F)ccc(Oc3cc(F)cc(C#N)c3)c21 [Compound 278]
> 1000	CS(=O)(=NC#N)c1ccc(Oc2cncc(C#N)c2)c2c1[C@@H](O)C(F)(F)[C@@H]2F (stereo partly drawn) [Compound 320]
> 1000	Cc1c([S+]([O-])C(F)F)ccc(Oc2cc(F)cc(Cl)c2)c1C#N (stereo not drawn) [Compound 37]
> 1000	O=S(=O)(c1ccc(Oc2c(F)cccc2F)c(Br)c1)C(F)(F)F [Compound 176]
> 1000	CS(=O)(=O)c1ccc(Nc2cc(F)cc(C#N)c2)c2c1C(O)C(F)(F)C2 (stereo not drawn) [Compound 502]
> 1000	N#Cc1cncc(Oc2ccc3c(c2Br)[C@@H](O)CS3(=O)=O)c1 [Compound 420]
> 1000	Cc1c(Cl)cccc1Oc1ccc(S(=O)(=O)C(F)(F)F)cc1Br [Compound 171]
> 1000	CCc1ccc(S(=O)(=O)C(F)(F)F)c2c1CCC2O (stereo not drawn) [Compound 514]
> 1000	OC1c2c(I)cc(I)c(OCC(F)F)c2CC1(F)F (stereo not drawn) [Compound 666]
< 50	O[C@H]1c2c(C(F)(F)F)ccc(OC3CC(F)(F)C3)c2CC1(F)F [Compound 587]
> 1000	O=S(=O)(c1ccc(Oc2cccc(C(F)(F)F)c2)c(Br)c1CO)C(F)F [Compound 89]
> 1000	N#Cc1cc(F)cc(Oc2ccc3c(c2C#N)C(O)(C(F)(F)F)CS3(=O)=O)c1 (stereo not drawn) [Compound 450]
250 to 1000	O=S(=O)(c1ccc(Oc2cc(F)cc(Cl)c2)c(Cl)c1CNC1CCOCC1)C(F)F [Compound 48]

IC50 [nM]	Structure (SMILES)
> 1000	CS(=O)(=O)c1ccc(Oc2cc(F)cc(C#N)c2)c2c1C(O)CCC2 (stereo not drawn) [Compound 95]
50 to 249	CS(=O)(=O)c1ccc(OC[C@H]2CC2(F)F)c2c1[C@H](O)C(F)(F)[C@@H]2F [Compound 769]
> 1000	COC(=O)c1c([S+]([O-])C(F)F)ccc(Oc2cc(F)cc(Cl)c2)c1Br (stereo not drawn) [Compound 82]
> 1000	CN(C)CCOc1ccc(S(=O)(=O)C(F)(F)F)c2c1CC(F)(F)C2O (stereo not drawn) [Compound 641]
> 1000	Cc1c(Oc2cc(F)cc(C#N)c2)ccc(S(=O)(=O)C(F)(F)F)c1C#CCO [Compound 142]
> 1000	N#Cc1cc(F)cc(Oc2ccc3c(c2Br)C(=O)C(F)(F)S3(=O)=O)c1 [Compound 393]
> 1000	O=S(=O)(c1ccc(CC(O)CO)c2c1C(O)C(F)(F)C2)C(F)(F)F (stereo not drawn) [Compound 521, 3-(2,2-difluoro-1-hydroxy-7-((trifluoromethyl)sulfonyl)-2,3-dihydro-1H-inden-4-yl)propane-1,2-diol]
> 1000	NS(=O)(=O)c1ccc(Oc2cc(F)cc(F)c2)c2c1C(O)CC2 (stereo not drawn) [Compound 257]
> 1000	CCOCC1(COc2ccc(S(=O)(=O)C(F)(F)F)c3c2CC(F)(F)[C@H]3O)COC1 [Compound 708]
> 1000	N#Cc1c(Oc2cc(F)cc(Cl)c2)ccc(S(=O)(=O)C(F)(F)F)c1NCCO [Compound 154]
> 1000	CC1(C)CC[C@H](O)[C@@H](c2ccc(S(=O)(=O)C(F)(F)F)c3c2CC(F)(F)[C@H]3O)C1 [Compound 544]
250 to 1000	C/C=C/c1c(S(=O)(=O)C(F)F)ccc(Oc2cc(F)cc(C#N)c2)c1C#N [Compound 178]
250 to 1000	N#Cc1c(S(=O)(=O)C(F)F)ccc(Oc2cc(F)cc(Cl)c2)c1Br [Compound 76]
50 to 249	Cc1c(Oc2cc(F)cc(C#N)c2)ccc(S(=O)(=O)C(F)(F)F)c1Br [Compound 141]
< 50	CS(=O)(=NC#N)c1ccc(Oc2cncc(C#N)c2)c2c1[C@H](O)C(F)(F)[C@@H]2F (stereo partly drawn) [Compound 319]
250 to 1000	O=S(=O)(c1ccc(Oc2cc(F)cc(F)c2)c2c1C(CO)CC2)C(F)F (stereo not drawn) [Compound 24]
250 to 1000	CN=S(=O)(c1ccc(Oc2cc(F)cc(Cl)c2)c(Br)c1)C(F)F (stereo not drawn) [Compound 70]
50 to 249	N=S1(=O)c2ccc(Oc3cc(F)cc(F)c3)c(Br)c2C(O)C1(F)F (stereo not drawn) [Compound 378]
50 to 249	CS(=O)(=O)c1ccc(Oc2cncc(C#N)c2)c2c1[C@H](O)[C@H](F)[C@@H]2F [Compound 333]
50 to 249	O=[N+]([O-])c1c(Oc2cccc(Cl)c2)ccc(C(F)(F)F)c1Cl [Compound 204]
